# Reference: ChEMBL document CHEMBL1128891, “Synthesis of indane derivatives as mechanism-based inhibitors of dopamine -hydroxylase” (Bioorg Med Chem Lett, 1995)
# pKi: −log10 of the molar value.
# Legend:
# [1] = molecular target: T1, Dopamine beta-hydroxylase (Bos taurus, UniProt P15101); assay: Kinetic constant for inhibition (KI) of Dopamine beta-Hydroxylase (DBH) from bovine adrenal medulla; format: tissue-based
# T1 sequence (P15101 whole entry): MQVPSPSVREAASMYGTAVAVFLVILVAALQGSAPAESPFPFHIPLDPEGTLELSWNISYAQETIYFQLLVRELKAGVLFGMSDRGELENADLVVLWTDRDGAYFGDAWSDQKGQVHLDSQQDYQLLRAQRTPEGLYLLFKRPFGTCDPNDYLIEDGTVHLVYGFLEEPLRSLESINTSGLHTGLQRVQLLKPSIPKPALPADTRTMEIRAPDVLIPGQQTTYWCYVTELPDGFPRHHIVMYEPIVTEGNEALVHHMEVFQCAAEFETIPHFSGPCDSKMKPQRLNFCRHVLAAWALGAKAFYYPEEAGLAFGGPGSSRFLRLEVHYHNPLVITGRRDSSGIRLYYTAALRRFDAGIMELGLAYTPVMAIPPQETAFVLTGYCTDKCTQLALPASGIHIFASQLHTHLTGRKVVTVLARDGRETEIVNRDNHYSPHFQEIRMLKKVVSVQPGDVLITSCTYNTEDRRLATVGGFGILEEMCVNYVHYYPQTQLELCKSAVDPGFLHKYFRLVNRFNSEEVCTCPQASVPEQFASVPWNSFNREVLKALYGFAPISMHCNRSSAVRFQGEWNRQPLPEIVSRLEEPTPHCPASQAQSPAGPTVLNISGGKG
# [2] = molecular target: T2, Dopamine beta-hydroxylase (Bos taurus) (UniProt P15101); assay: Kinetic constant for inactivation (k inact) of Dopamine beta-Hydroxylase (DBH) from bovine adrenal medulla; format: tissue-based
# T2 sequence (whole entry): T1 sequence (P15101 whole entry)
# [3] = Ratio of kinetic constant k inact to KI was determined
pKi [1],K inact [2],Ratio [3],SMILES
2.52,0.2 min⁻¹,70 M⁻¹ min⁻¹,c1ccc2c(c1)CC1CC21 (configuration not stated)
3.19,0.07 min⁻¹,110 M⁻¹ min⁻¹,COc1ccc2c(c1)C1OC1C2 (configuration not stated)
3.82,0.23 min⁻¹,1530 M⁻¹ min⁻¹,Oc1ccc2c(c1)C1CC1C2 (configuration not stated)
2.95,0.11 min⁻¹,100 M⁻¹ min⁻¹,COc1ccc2c(c1)C1CC1C2 (configuration not stated)
3.96,0.129 min⁻¹,1180 M⁻¹ min⁻¹,Oc1cc2c(cc1O)C1CC1C2 (configuration not stated)

# Second part, the molecule before the results:
SMILES,pKi [1],K inact [2],Ratio [3]
c1c2c(cc3c1OCO3)C1CC1C2 (configuration not stated),3.80,0.06 min⁻¹,370 M⁻¹ min⁻¹
c1ccc2c(c1)CC1OC21 (configuration not stated),2.97,0.08 min⁻¹,70 M⁻¹ min⁻¹
COc1ccc2c(c1)C1NC1C2 (configuration not stated),3.40,0.03 min⁻¹,70 M⁻¹ min⁻¹
Oc1ccc(CC2CC2)cc1,1.92,,150 M⁻¹ min⁻¹
COc1ccc(CC2CC2)cc1,3.62,0.018 min⁻¹,75 M⁻¹ min⁻¹
c1c2c(cc3c1OCO3)C1OC1C2 (configuration not stated),3.00,0.06 min⁻¹,60 M⁻¹ min⁻¹
